Data set [1] can be described thus: Non enzymatic assay of superoxide radical scavenging activity (PMS/NADH/NBT). Type of data set: biochemical. How it is done:
Superoxide radical is a main cause of oxidative stress, expressing its biological toxicity by the inactivation of iron-sulfur cluster containing enzymes. The superoxide anion radical (O2^−^•) is less toxic than the hydroxyl radical, but still being one of the most known toxic reactive oxygen species (ROS). In this assay the superoxide anion radicals were generated by a non-enzymatically assay and the compounds are tested at 100 μM final concentration (Table 2). Caffeic acid (CA) has been used as a reference compound. Compound 4ii presented the highest activity, followed by compound 3ii. We succeeded to derive a quantitative-structure activity relationship model for this activity in which the topological polar surface (TPAS) of the compounds seem to govern the superoxide anion scavenging activity:% Superoxide Anion Scavenging Activity (100 µM) = 0.019 (±0.007) TPSA + 0.813 (±0.358) n = 6, r = 0.962, r^2 = 0.926, q^2 = 0.694, s = 0.122, Q = 7.885, F1,6 = 3.701, α = 0.1 clog P vs. TPSA 0.
The superoxide radicals are generated by mixing N-methylphenazonium methyl sulfate (PMS), NADH and air–oxygen and determined by the nitroblue tetrazolium method and measured at 560 nm (Table 2). Caffeic acid was used as reference compound [17, 18, 28].

The nature of data set [2]: Reducing activity of the stable radical DPPH. Type of data set: biochemical. The method, then: The substituted acids were monitored for the antioxidant activity by the use of the stable 2,2-diphenyl-1-picrylhydrazyl radical (DPPH) at concentration 50 µM and 100 µM after 20 and 60 min (Table 1). In this assay the DPPH radical is reduced by single electron transfer from the antioxidant. Strong antioxidants are the phenoxide anions from phenolic compounds like catechol and derivatives, such as nordihydroguaretic acid (NDGA), the reference compound. The compounds presented medium reducing abilities from 29–61%, due to steric reasons; small differences were found among the compounds with time and concentration. 4-Br-substituted-3 phenyl acetic acid derivatives (Series I) are equipotent to 4-OH-substituted-3 phenyl acetic acid derivatives (Series II). No differences were observed between 4i and 5i and 4ii and 5ii.
To a solution of DPPH in absolute ethanol an equal volume of the compounds dissolved in DMSO was added. The final concentrations of the measured solutions of the novel acids were 50 and 100 µM starting from a stock solution (10 mM) in DMSO. The absorbance was recorded at 517 nm, after 20 and 60 min at room temperature (Table 1).

Data set [3] is described as follows: Competition with DMSO for hydroxyl radicals (Fe3+/ascorbic acid system). Type of data set: biochemical. The conditions noted are these: hydroxyl radical scavenging. How it is done:
Competition of the novel substituted acids with DMSO for hydroxyl radicals was measured. Hydroxyl radicals were generated using the Fe^3+/ascorbic acid system and expressed as a percentage inhibition of formaldehyde production in the presence of each compound at 100 μM (Table 2). All the synthesized derivatives strongly scavenge hydroxyl radicals at 100 μM in comparison to the reference compound Trolox.
The hydroxyl radicals generated by the Fe^3+/ascorbic acid system, were detected by the determination of formaldehyde produced from the oxidation of DMSO (Table 2). Trolox was used as reference compound [17, 18, 28].

In a further data set the target is T1, soybean lipoxygenase (Glycine max, UniProt P08170).
T1 construct: purchased Sigma Chemical, Co. (St. Louis)
T1 sequence (P08170 1-839): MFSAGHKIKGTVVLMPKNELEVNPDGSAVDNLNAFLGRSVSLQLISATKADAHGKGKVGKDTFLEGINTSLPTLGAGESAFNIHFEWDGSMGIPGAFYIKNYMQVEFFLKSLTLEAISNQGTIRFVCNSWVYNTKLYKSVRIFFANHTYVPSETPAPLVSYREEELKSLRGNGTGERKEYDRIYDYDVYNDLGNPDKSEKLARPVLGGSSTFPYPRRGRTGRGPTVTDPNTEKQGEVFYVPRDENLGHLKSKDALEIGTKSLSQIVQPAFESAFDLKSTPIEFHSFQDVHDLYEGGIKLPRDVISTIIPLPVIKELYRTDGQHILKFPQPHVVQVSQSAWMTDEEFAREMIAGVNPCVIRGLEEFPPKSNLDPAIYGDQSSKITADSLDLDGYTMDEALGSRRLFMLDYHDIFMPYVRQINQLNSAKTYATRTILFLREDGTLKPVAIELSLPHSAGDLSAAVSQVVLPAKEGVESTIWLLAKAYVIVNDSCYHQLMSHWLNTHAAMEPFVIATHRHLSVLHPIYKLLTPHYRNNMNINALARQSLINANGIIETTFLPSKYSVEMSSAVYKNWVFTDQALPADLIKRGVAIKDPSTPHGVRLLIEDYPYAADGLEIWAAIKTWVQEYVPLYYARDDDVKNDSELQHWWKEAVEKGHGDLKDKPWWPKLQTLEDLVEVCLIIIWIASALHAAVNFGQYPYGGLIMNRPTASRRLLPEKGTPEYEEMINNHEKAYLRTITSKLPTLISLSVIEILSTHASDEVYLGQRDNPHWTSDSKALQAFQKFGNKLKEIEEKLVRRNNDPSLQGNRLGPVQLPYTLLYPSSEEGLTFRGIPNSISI
Briefly: Soybean lipoxygenase inhibition in vitro. Type of data set: biochemical. As to conditions: for IC50: sodium linoleate 0.1 mM, 234 nm, read-out: LOX IC50. How it is done: Many research groups have used readily obtainable soybean lipoxygenase, which is a homologue of mammalian lipoxygenase and well studied. Due to its availability and its well-characterised crystal structure, soybean LOX was selected to be used in this study.
In vitro study was evaluated as reported previously by our group. The tested compounds were incubated at room temperature with sodium linoleate (0.1 mM) and 0.2 mL of enzyme solution (1/9 × 104 w/v in saline). The method was based to the conversion of sodium linoleate to 13-hydroperoxylinoleic acid at 234 nm. […] In order to determine the IC50 values different concentrations were used.

A short description of data set [4]: Experimental lipophilicity as RM values by reversed phase TLC (RPTLC). As to conditions: methanol/water 77/23 with 0.1% acetic acid, 24 °C, average of at least 5 measurements. Type of data set: physicochemical. The source says: Lipophilicity is a physicochemical property correlated with the biological activity. Lipophilicity influences ligand-target binding interactions, solubility, absorption, distribution, bioavailability, metabolism and elimination (ADME) and toxicological outcomes. The lipophilicity of the novel cinnamic acids was experimentally measured as RM values using a reverse phase thin layer chromatography (RPTLC) method. This is acknowledged as a reliable, fast and convenient approach for expressing lipophilicity (Table 1). RM relates to the thermodynamic Rf value in a logarithmic form. Bate-Smith and Westall firstly determined lipophilicity as RM values in 1950 [31]. The Br-substituted derivatives 1i–7i are more lipophilic than the OH-substituted ones 1ii–7ii which can be easily explained by their structural characteristics.
Reversed phase TLC (RPTLC) was performed on silica gel plates impregnated with 55% (v/v) liquid paraffin in light petroleum ether. The mobile phase was a methanol/water mixture (77/23, v/v) containing 0.1% of acetic acid. The plates were developed in closed chromatography tanks saturated with the mobile phase at 24 °C. Spots were detected under UV light. RM values were determined from the corresponding Rf values (from five individual measurements) using the equation RM = log[(1/Rf) − 1] [17, 18, 28].

Data set [5] can be described thus: ABTS+• decolorization assay. The class given is biochemical. The conditions noted are these: 1 min, 734 nm. How it is done:
No role for lipophilicity was found. Oxidation of ABTS with potassium persulfate generates directly the ABTS radical cation (ABTS^+•) with no involvement of an intermediary radical, which is then reduced upon adding electron-donating antioxidants.
In order to produce the ABTS radical cation (ABTS^+•), ABTS stock solution in water (7 mM) was mixed with potassium persulfate (2.45 mM) and left in the dark at room temperature for 12–16 h before use. Our published experimental technique was used (Table 2). The results are recorded after 1 min of the mixing solutions at 734 nm. The results were compared to the appropriate standard inhibitor Trolox.

Data set [6] can be described thus: Inhibition of linoleic acid peroxidation (AAPH). The class given is biochemical. The conditions noted are these: anti-lipid peroxidation. The source says: We also used water-soluble 2,2′-[…](2-amidinopropane) hydrochloride (AAPH) for the generation of free radicals. AAPH has been extensively used as a clean and controllable source of thermally produced alkylperoxyl free radicals. The peroxyl radicals produced by the action of AAPH show total similarity to cellular activities such as lipid peroxidation. […] It seems that the presence of 3,5-di-tert-butyl-group greatly enhances protection against lipid peroxidation (6i/ii and 7i/ii followed by 3ii and 5ii). The lipid peroxidation inhibitory activity seems to be concentration dependent.
2,2’-Azobis(2-amidinopropane) dihydrochloride (AAPH) was used as a free radical initiator to start the oxidation reaction. The method was based on the production of conjugated diene hydroperoxide by oxidation of linoleic acid at 234 nm expressed as an increased absorption. Trolox was used as reference compound (93%) (Table 2).

Several values for one entry are separate records, joined by “and”; a condition that tells them apart may be missing. Identical values can stand only once.

For the molecule `O=C(O)/C=C/c1ccc(O)c(O)c1` [CA, Caffeic acid, reference compound], the “O2−•% 100 µM” value in data set [1] came out at 23%.

Take `O=C(O)C(=Cc1cccc(Oc2ccccc2)c1)c1ccc(Br)cc1` [Compound 1i, 2-(4-Bromophenyl)-3-(3-phenoxyphenyl)acrylic acid]: the melting point fell in the range of 152 to 153 °C. Further, the “O2−•% 100 µM” value in data set [1] turned out to be 54%. Further, in data set [2], the “RA% 50 µM 20 min” value is given as 38%, the “RA% 50 µM 60 min” value came out at 37%, the “RA% 100 µM 20 min” value came to 44% and the “RA% 100 µM 60 min” value is on record as 46%. In data set [3], the “HO•% 100 µM” value came out at 94%. Moreover, the IC50 on soybean lipoxygenase was determined as 100 µM. In data set [4], the “RM (±SD)” value is recorded as −0.103 (0.009). Besides, in data set [5], the “ABTS+•% 100 µM” value is recorded as 29%. For the same molecule, in data set [6], the “AAPH% 50 µM” value turned out to be 34% and the “AAPH% 100 µM” value is recorded as 90%.

In turn, `O=C(O)C(=Cc1cccc(Oc2ccccc2)c1)c1ccc(O)cc1` [Compound 1ii, 2-(4-Hydroxyphenyl)-3-(3-phenoxyphenyl)acrylic acid] returned a melting point of 105 to 107 °C. Also, the “O2−•% 100 µM” value in data set [1] stood at 8%. In data set [2], the “RA% 50 µM 20 min” value turned out to be 40%, the “RA% 50 µM 60 min” value was 39%, the “RA% 100 µM 20 min” value amounted to 45% and the “RA% 100 µM 60 min” value amounted to 47%. Further, the “HO•% 100 µM” value in data set [3] was determined as 100%. Moreover, the IC50 on soybean lipoxygenase stood at 91.5 µM. Further, the “RM (±SD)” value in data set [4] is −0.537 (0.002). The “ABTS+•% 100 µM” value in data set [5] is 83.4% and 83%. For the same molecule, in data set [6], the “AAPH% 50 µM” value is given as 22% and the “AAPH% 100 µM” value is 94%.

Molecule `CN(C)c1ccc(C=CC=C(C(=O)O)c2ccc(O)cc2)cc1` [Compound 3ii, 5-(4-(Dimethylamino)phenyl)-2-(4-hydroxyphenyl)penta-2,4-dienoic acid] registered a melting point of 204 to 205 °C. In addition, the “O2−•% 100 µM” value in data set [1] is on record as 85%. In data set [2], the “RA% 50 µM 20 min” value was 43%, the “RA% 50 µM 60 min” value came to 35%, the “RA% 100 µM 20 min” value was found to be 44% and the “RA% 100 µM 60 min” value amounted to 46%. Besides, the “HO•% 100 µM” value in data set [3] stood at 99%. Further, the IC50 at soybean lipoxygenase was determined as 89 µM. In addition, the “RM (±SD)” value in data set [4] is given as −0.642 (0.032). Besides, the “ABTS+•% 100 µM” value in data set [5] came to 63%. In data set [6], the “AAPH% 50 µM” value came out at 71% and the “AAPH% 100 µM” value was found to be 95%.

`O=C(O)C(=CC(Br)=Cc1ccccc1)c1ccc(Br)cc1` [Compound 4i, 4-Bromo-2-(4-bromophenyl)-5-phenylpenta-2,4-dienoic acid] yielded a melting point of 211 to 212 °C. Further, in data set [1], the “O2−•% 100 µM” value was determined as 46%. Also, in data set [2], the “RA% 50 µM 20 min” value was found to be 30%, the “RA% 50 µM 60 min” value came to 30%, the “RA% 100 µM 20 min” value was found to be 38% and the “RA% 100 µM 60 min” value turned out to be 36%. The “HO•% 100 µM” value in data set [3] turned out to be 83%. The “LOX % Inhibition 100 µM” value at soybean lipoxygenase (100 µM) came to 28%. Also, on soybean lipoxygenase (100 µM, read-out: LOX % Inhibition 100 µM), the inhibition at 100 µM stood at 27.9%. In addition, in data set [4], the “RM (±SD)” value is 0.423 (0.017). For the same molecule, the “ABTS+•% 100 µM” value in data set [5] worked out at 24%. In addition, in data set [6], the “AAPH% 50 µM” value is on record as 52% and the “AAPH% 100 µM” value was 85%.

`O=C(O)C(=CC(Br)=Cc1ccccc1)c1ccc(O)cc1` [Compound 4ii, 4-Bromo-2-(4-hydroxyphenyl)-5-phenylpenta-2,4-dienoic acid] registered a melting point of 155 to 157 °C. In addition, in data set [1], the “O2−•% 100 µM” value came to 100%. In data set [2], the “RA% 50 µM 20 min” value came to 34%, the “RA% 50 µM 60 min” value was 46%, the “RA% 100 µM 20 min” value was 35% and the “RA% 100 µM 60 min” value was 37%. Further, the “HO•% 100 µM” value in data set [3] is reported as 96%. In addition, at soybean lipoxygenase, the IC50 was 69 µM. Moreover, in data set [4], the “RM (±SD)” value is on record as 0.011 (0.001). Moreover, the “ABTS+•% 100 µM” value in data set [5] was 24%. Besides, in data set [6], the “AAPH% 50 µM” value came out at 59% and the “AAPH% 100 µM” value is reported as 97%.

These data come from article PMC6337588, “Multi-Target Cinnamic Acids for Oxidative Stress and Inflammation: Design, Synthesis, Biological Evaluation and Modeling Studies” (Molecules, 2018).
